This test has as its system 699152-130-R-J1-PDC complex spheroid viability. In words: Anticancer human tumor 699152-130-R-J1-PDC patient-derived pancreatic carcinoma cell line growth inhibition [POLQ]. The following applies: for viability, T/C: stronger effect = lower value. On the procedure: Multicellular complex tumor spheroid response to Polymerase (POL) inhibitors (novobiocin, ART-558, RP6685) in combination with a variety of drugs and investigational agents in selected tumor cell lines
The POL inhibitors (novobiocin, ART-558, and RP6685) were evaluated both individually and in combination with standard of care and investigational anticancer small molecules within a complex spheroid model of solid tumors. . Complex spheroids include a stromal component modeled by human endothelial cells (HUVEC) and fibroblasts modeled by human mesenchymal stem cells (MSCs). The concentration ranges selected for each drug and investigational agent were based upon clinically achievable concentrations if the clinical Cmax of the agent was known.
Compounds. The drugs and investigational agents: novobiocin (NSC847541), ART-558 (NSC835418), RP-6685 (NSC848927), peposertib (NSC802822), ceralasertib (NSC780249), elimusertib (NSC800525), camonsertib (NSC841442), AZD-1390 (NSC803789), olaparib (NSC753686), talazoparib (NSC767125), rucaparib (NSC756644), sotorasib (NSC818433), MRTX-1133 (NSC836407), SN-38 (NSC673596), topotecan (NSC609699), epotoside (NSC141540), doxorubicin (NSC123127), gemcitabine (NSC613327), 5-fluorouracil (NSC19893), paclitaxel (NSC125973), vemurafenib (NSC761431), MSA-2 (NSC828583), SN-011 (NSC837082), adavosertib (NSC754352), prexasertib (NSC758257), carboplatin (NSC241240) and oxaliplatin (NSC266046), were obtained from the National Cancer Institute (NCI) Developmental Therapeutics Program Chemical Repository (21). The FDA-approved anticancer drug set is available from the Developmental Therapeutics Program at https://dtp.cancer.gov/organization/dscb/obtaining/. […] The stock solutions were prepared in dimethyl sulfoxide (DMSO, Sigma-Aldrich, St. Louis, MO, cat. D2650), except for the platinum compounds which were prepared in saline (Quality Biological, Gaithersburg, MD, cat. 114-055-101), at 800-fold the tested concentration and stored at -70 degrees C prior to their use. All drugs and investigational agents were tested over a range starting from a high concentration at or near the clinical Cmax and decreasing in half-log increments. If the clinical Cmax for an agent had not been determined, the highest concentration tested was 10 microM, except for SN-38, which was tested at a high concentration of 1 microM.
Cell Culture. All cells were maintained in an incubator at 37 degrees C and 5% CO2 with 95% humidity. The PDC lines were cultured according to standard operating procedures established by the NCI PDMR (https://pdmr.cancer.gov). Table 3 of the manuscript, lists the cell lines along with the number of the three cell types plated to form the mct-spheroids and media for tumor cell growth. After thawing, all PDC lines, except 997537-175-T-J1-PDC and 415267-285-R-J2-PDC, were cultured in Matrigel-coated flasks prepared with a working solution of 1X Ham's F-12 nutrient mix, without supplementation (Thermo Fisher Scientific, cat. 11765054), 100 U/mL penicillin-streptomycin (Thermo Fisher Scientific, cat. 15140122), and 2.5% Matrigel (Corning Inc., Corning, NY, cat. 354248) for the first three passages. The two PDC lines 997537-175-T-J1-PDC and 415267-285-R-J2-PDC were cultured on uncoated flasks. The 857933-349-R-J2-PDC line was cultured in 6C/Colon 1B media containing advanced DMEM/F-12 (Thermo Fisher Scientific, cat. 12634028), 10 mM HEPES (Thermo Fisher Scientific, cat. 15630080), 1X GlutaMAX supplement (Thermo Fisher Scientific, cat. 35050061), 0.1 mg/mL primocin (InvivoGen, San Diego, CA, cat. ant-pm-2), 10% defined fetal bovine serum, heat inactivated (HyClone Laboratories Inc., Logan, UT, cat. SH30070.03HI), 50% L-WRN conditioned media (ATCC, cat. CRL-3276), 1.25 mM N-Acetyl-L-cysteine (Sigma-Aldrich, cat. A9165), 10 mM nicotinamide (Sigma-Aldrich, cat. N0636), 1X B-27 supplement (Thermo Fisher Scientific, cat. 17504044), 1X N-2 supplement (Thermo Fisher Scientific, cat. […]

Values joined by “and” are separate entries in the source; they are usually repeats but may differ in a detail not shown here. Identical values can stand only once.
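Also: spheroids exposed to agents for 7 days before viability reading.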
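For viability, T/C in this document: percent of DMSO vehicle control viability so 100% = vehicle and 0% = no viable signal.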

One may read the viability, T/C as the result in the treated group divided by that in the control group, in per cent. What is called IC50 is the concentration at which inhibition is half-maximal. As for `COc1ccc([C@@H](O)c2cc(-c3ncnc4cc(N5CCOCC5)ccc34)c(F)cc2Cl)nn1`, the viability, T/C reads like this: (compound 0.0316 µM) 111% and 87.9% and 88.4%; (compound 0.1 µM) 96.7% and 92.9% and 106%; (compound 0.316 µM) 94.5% and 88.7% and 79.7%; (compound 1 µM) 84.6% and 77.3% and 75%; (compound 3.16 µM) 49.6% and 50.5% and 60.4%; (compound 10 µM) 23.9% and 19.9% and 19.4%. Also, the IC50 (curve of compound) is 3.41 µM and 3.19 µM and 3.96 µM.
Regarding `CC(=O)O[C@H]1C(=O)[C@@]2(C)[C@H]([C@H](OC(=O)c3ccccc3)[C@]3(O)C[C@H](OC(=O)[C@H](O)[C@@H](NC(=O)c4ccccc4)c4ccccc4)C(C)=C1C3(C)C)[C@]1(OC(C)=O)CO[C@@H]1C[C@@H]2O`, the viability, T/C (compound 0.00949 µM) was 71.7% and 80.5% and 82.2%; the viability, T/C (compound 0.03 µM) is 56% and 69.6% and 61.2%; the viability, T/C (compound 0.0949 µM) was 54.2% and 56.2% and 58.5%; the viability, T/C (compound 0.3 µM) was 62% and 62.2% and 59.9%; the viability, T/C (compound 0.949 µM) is 66.9% and 69% and 60%; the viability, T/C (compound 3 µM) is 70.2% and 72.3% and 64.6%. Further, the IC50 (curve of compound) is greater than 3 µM.
With `CNCc1ccc(-c2[nH]c3cc(F)cc4c3c2CCNC4=O)cc1`, the viability, T/C by setting is: (compound 0.0316 µM) 96.2% and 95.6% and 99%; (compound 0.1 µM) 99.8% and 91.1% and 101%; (compound 0.316 µM) 118% and 90.3% and 99.8%; (compound 1 µM) 106% and 108% and 112%; (compound 3.16 µM) 119% and 117% and 138%; (compound 10 µM) 111% and 109% and 130%. Also, the IC50 (curve of compound) was greater than 10 µM.
As to `Nc1ccn(C2OC(CO)C(O)C2(F)F)c(=O)n1` (configuration not stated), the viability, T/C is 68.9% and 75.2% and 66% (compound 0.0316 µM); 63.8% and 57.4% and 54.5% (compound 0.1 µM); 54.8% and 51.7% and 52.1% (compound 0.316 µM); 49.3% and 52.1% and 41.2% (compound 1 µM); 44.3% and 51.1% and 40.1% (compound 3.16 µM); 39.6% and 44.7% and 36% (compound 10 µM). In addition, where the note is “curve of compound”, the IC50 is 0.917 µM and 0.786 µM and 0.277 µM.
As for `O=c1[nH]cc(F)c(=O)[nH]1` + Cc1cccc(N(C)C(=O)C2C(O)CCN2c2nc(C)cc(C(F)(F)F)c2C#N)c1, the IC50 is, setting by setting: (curve of first compound, second compound 0.0316 µM) greater than 10 µM; (curve of first compound, second compound 0.1 µM) greater than 10 µM; (curve of first compound, second compound 0.316 µM) greater than 10 µM; (curve of first compound, second compound 1 µM) greater than 10 µM; (curve of first compound, second compound 3.16 µM) greater than 10 µM; (curve of first compound, second compound 10 µM) greater than 10 µM. For the same compound, the viability, T/C is, setting by setting: (second compound 0.0316 µM, first compound 0.0316 µM) 105%; (second compound 0.0316 µM, first compound 0.1 µM) 109%; (second compound 0.0316 µM, first compound 0.316 µM) 107%; (second compound 0.0316 µM, first compound 1 µM) 113%; (second compound 0.0316 µM, first compound 3.16 µM) 102%; (second compound 0.0316 µM, first compound 10 µM) 74.1%. Moreover, the viability, T/C was 110% (second compound 0.1 µM, first compound 0.0316 µM); 113% (second compound 0.1 µM, first compound 0.1 µM); 99.2% (second compound 0.1 µM, first compound 0.316 µM); 107% (second compound 0.1 µM, first compound 1 µM); 100% (second compound 0.1 µM, first compound 3.16 µM); 82.6% (second compound 0.1 µM, first compound 10 µM). The viability, T/C reads like this: (second compound 0.316 µM, first compound 0.0316 µM) 120%; (second compound 0.316 µM, first compound 0.1 µM) 122%; (second compound 0.316 µM, first compound 0.316 µM) 106%; (second compound 0.316 µM, first compound 1 µM) 107%; (second compound 0.316 µM, first compound 3.16 µM) 120%; (second compound 0.316 µM, first compound 10 µM) 79.9%. The viability, T/C is 108% (second compound 1 µM, first compound 0.0316 µM); 104% (second compound 1 µM, first compound 0.1 µM); 104% (second compound 1 µM, first compound 0.316 µM); 111% (second compound 1 µM, first compound 1 µM); 92.1% (second compound 1 µM, first compound 3.16 µM); 74.7% (second compound 1 µM, first compound 10 µM). Moreover, the viability, T/C is 113% (second compound 3.16 µM, first compound 0.0316 µM); 116% (second compound 3.16 µM, first compound 0.1 µM); 108% (second compound 3.16 µM, first compound 0.316 µM); 104% (second compound 3.16 µM, first compound 1 µM); 117% (second compound 3.16 µM, first compound 3.16 µM); 87.3% (second compound 3.16 µM, first compound 10 µM). The viability, T/C is 103% (second compound 10 µM, first compound 0.0316 µM); 102% (second compound 10 µM, first compound 0.1 µM); 104% (second compound 10 µM, first compound 0.316 µM); 92.8% (second compound 10 µM, first compound 1 µM); 91.3% (second compound 10 µM, first compound 3.16 µM); 84.6% (second compound 10 µM, first compound 10 µM).
Turning to `CCc1cc2c(N3CCc4c(cc(Cn5ccnc5)cc4-c4cn(C)nc4C(F)(F)F)C3=O)ccnc2c(OC)n1`, the viability, T/C by setting is: (compound 0.0316 µM) 88.3% and 83.8% and 90.8%; (compound 0.1 µM) 81.6% and 90.7% and 76.9%; (compound 0.316 µM) 86.3% and 93.2% and 101%; (compound 1 µM) 102% and 81.5% and 103%; (compound 3.16 µM) 99.5% and 98.2% and 112%; (compound 10 µM) 89% and 94.7% and 88.3%. The IC50 (curve of compound) was greater than 10 µM.
`CCCS(=O)(=O)Nc1ccc(F)c(C(=O)c2c[nH]c3ncc(-c4ccc(Cl)cc4)cc23)c1F`: the viability, T/C was 109% and 96.3% and 112% (compound 0.0316 µM); 112% and 102% and 110% (compound 0.1 µM); 129% and 120% and 116% (compound 0.316 µM); 158% and 156% and 128% (compound 1 µM); 187% and 182% and 192% (compound 3.16 µM); 34.7% and 43.6% and 56.4% (compound 10 µM). Also, under “curve of compound”, the IC50 was 8.44 µM and 9.19 µM and > 10 µM.
With `Cn1ncnc1[C@H]1c2n[nH]c(=O)c3cc(F)cc(c23)N[C@@H]1c1ccc(F)cc1`, the viability, T/C by setting is: (compound 0.000316 µM) 94.3% and 91% and 102%; (compound 0.001 µM) 88.8% and 78.8% and 93%; (compound 0.00316 µM) 95% and 104% and 108%; (compound 0.01 µM) 80.8% and 104% and 106%; (compound 0.0316 µM) 83.2% and 89.8% and 97.3%; (compound 0.1 µM) 86.5% and 95.5% and 92.5%. For the same compound, the IC50 (curve of compound) is greater than 0.1 µM.
`C=CC(=O)N1CCN(c2nc(=O)n(-c3c(C)ccnc3C(C)C)c3nc(-c4c(O)cccc4F)c(F)cc23)C(C)C1` (configuration not stated): the viability, T/C reads like this: (compound 0.0316 µM) 105% and 104% and 110%; (compound 0.1 µM) 103% and 99.2% and 98%; (compound 0.316 µM) 108% (2×) and 115%; (compound 1 µM) 113% and 97.7% and 121%; (compound 3.16 µM) 118% and 115% and 113%; (compound 10 µM) 109% and 106% and 105%. Moreover, under “curve of compound”, the half-inhibitory concentration (IC50) is greater than 10 µM.
`COc1cc2cc(C(=O)CCC(=O)O)sc2cc1OC`: the viability, T/C is, setting by setting: (compound 0.0316 µM) 101% (2×) and 90.4%; (compound 0.1 µM) 98.7% and 97.3% and 103%; (compound 0.316 µM) 94.8% and 103% and 101%; (compound 1 µM) 102% and 96.4% and 105%; (compound 3.16 µM) 111% (2×) and 91.5%; (compound 10 µM) 99.7% and 93.3% and 99.9%. The IC50 (curve of compound) is greater than 10 µM.
For `Cc1cccc(N(C)C(=O)C2C(O)CCN2c2nc(C)cc(C(F)(F)F)c2C#N)c1` (configuration not stated), the viability, T/C is, setting by setting: (compound 0.0316 µM) 105% [middle of 13 runs]; (compound 0.1 µM) 102% [middle of 13 runs]; (compound 0.316 µM) 101% [middle of 13 runs]; (compound 1 µM) 104% [middle of 13 runs]; (compound 10 µM) 102% [middle of 13 runs]. In addition, the IC50 by setting is: (compound alone, run of 11/27/2023) greater than 10 µM; (compound alone, run of 12/05/2023) greater than 10 µM.

The values are drawn from PubChem BioAssay AID1963835 (Molecular Pharmacology Branch, DTP, NCI, 2024).
